Test results from patent publication US20110086802A1, “METHODS TO INCREASE PERMEABILITY OF CORNEAL EPITHELIUM AND DESTABILIZE STROMAL COLLAGEN FIBRIL NETWORK” (priority 2008, published 2011).
Structures can show the parent of a compound that is named as a salt.

What was measured:
feline cornea [1] = experiment: Corneal Hysteresis, Feline Study #1 (Reichert Ocular Response Analyzer); type: in vivo, cat; design: Corneal Hysteresis (CH): unit not given here
Procedure: Cats were placed in three treatment groups. One eye from two cats were untreated controls. All treatment solutions were administered using an applicator to localize exposure to the central corneal surface. The applicator used to apply solutions to the corneal surface was similar in design to that described in the co-pending provisional application entitled “APPARATUS TO IMPROVE LOCALIZED CONCENTRATION OF FLUIDS IN OCULAR ENVIRONMENTS” to Bruce DeWoolfson and Michael Luttrell, provisional application No. 61/064,731, filed Mar. 24, 2008, incorporated herein by reference in its entirety. Two eyes was treated with Proparacaine HCl, followed by treatment with 0.5M sodium phosphate buffer (pH 8.35), then with 3 mg of glutaric anhydride dissolved in 0.6 mL of sodium phosphate buffer, then with sodium phosphate buffer, followed by 1.5 μL of acetic anhydride diluted in 0.6 mL of sodium phosphate buffer, a second treatment with 1.5 μL of acetic anhydride in 0.6 mL of sodium phosphate buffer, a buffer rinse and finally treatment with 0.6 mL of human recombinant decorin (4.47 mg/mL).
Two eyes were treated as above but without a final treatment with decorin solution. All eyes were clinically evaluated immediately post-treatment. Three days following treatment, eyes were enucleated and the corneas removed, placed in formalin containing Cupromeronic blue.
Measurements of Corneal Hysteresis (CH) in the animals treated in Example 2. Corneal Hysteresis is a measure of the biomechanical strength of the cornea and is measured using the Reichert Ocular Response Analyzer. The Reichert Ocular Response Analyzer utilizes a dynamic bi-directional applanation process to measure the biomechanical properties of the cornea and the Intraocular Pressure of the eye. The basic output of the measurement process is a Goldmann-correlated pressure measurement (IOPG), and a new measure of corneal tissue properties called Corneal Hysteresis (CH).

[2] = test system: epithelial cell junctures of human donor corneal tissue; experiment: Confocal microscopy of fluorescent-tagged decorin penetration into donor cornea; type: in vitro ADME; details: for disruption of epithelial cell junctures permitting diffusion of human recombinant decorin: human donor cornea, agent applied 30 seconds to central cornea by applicator before fluorescent-tagged decorin
Excerpt: Confocal Microscopy of glutaric anhydride treated cornea. Four donor corneas were obtained from Insight Biomed (Minneapolis, Minn.). All cornea tested negative for viral contamination. Corneas were rejected for transplantation due to storage expiration, low endothelial cell counts or other factors not related to epithelial cell integrity and stromal structure. All corneas were examined by slit-lamp microscopy for epithelial cell integrity. Corneas were stored in Optisol (Bausch & Lomb) for storage. Confocal microscopy was conducted at the Department of Surgical Research, Dartmouth-Hitchcock Medical Center, Lebanon, N.H. Two corneas were untreated controls and two were treated with glutaric anhydride followed by application of fluorescent-tagged human recombinant decorin. […] Fluorescent-tagged decorin was prepared by reacting decorin with Oregon Green 488 using a labeling kit from Molecular Probes.
All corneas were placed on a convex silicone pad and secured with pins. This allowed exposure to the corneal surface in a fixed position. All treatment solutions were administered using an applicator to localize exposure to the central corneal surface. Control cornea were treated with Proparacaine HCl for 1 minute followed by treatment with 0.5 mL of 0.2M sodium phosphate buffer (pH 8.3-8.5) for 30 seconds, 0.5 mL of saline rinse for 30 seconds, and then 0.1 mL of fluorescent-tagged human recombinant decorin. T reated cornea were treated with Proparacaine HCl for 1 minute, followed by treatment with 0.5 mL of 0.2M sodium phosphate buffer (pH 8.3-8.5) for 30 seconds, glutaric anhydride (dissolved immediately before application in sodium phosphate buffer (pH 8.3-8.5) at 5 mg/mL) for 30 seconds, saline rinsed, and then treated with 0.1 mL of fluorescent-tagged human recombinant decorin. Control and treated corneas were examined for decorin diffusion into the stroma using the Zeis confocal microscope (Model LSM 510 Meta; C apo 40×, NA=1.2, Thornwood, N.Y.).
Confocal Microscopy of acetic anhydride treated cornea. The protocol was the same as that described above for glutaric anhydride treatment. All treatment solutions were administered using an applicator to localize exposure to the central corneal surface. The applicator used to apply solutions to the corneal surface was similar in design to that described in the co-pending provisional application entitled “APPARATUS TO IMPROVE LOCALIZED CONCENTRATION OF FLUIDS IN OCULAR ENVIRONMENTS” to Bruce DeWoolfson and Michael Luttrell, provisional application No. 61/064,731, filed Mar. 24, 2008, incorporated herein by reference in its entirety. Control cornea were treated with Proparacaine HCl for 1 minute followed by treatment with 0.5 mL of 0.2M sodium phosphate buffer (pH 8.3-8.5) for 30 seconds, 0.5 mL of saline rinse for 30 seconds, and then 0.1 mL of fluorescent-tagged human recombinant decorin. Treated cornea were treated with Proparacaine HCl for 1 minute, followed by treatment with 0.5 mL of 0.3M sodium phosphate buffer (pH 8.3-8.5) for 30 seconds, acetic anhydride (3 μL) (diluted with 0.3M sodium phosphate buffer (pH 8.3-8.5) immediately before application) for 30 seconds, saline rinsed, and then treatment with 0.1 mL of fluorescent-tagged human recombinant decorin. Control and treated corneas were examined for decorin diffusion into the stroma using the Zeis confocal microscope (Model LSM 510 Meta; C apo 40×, NA=1.2, Thornwood, N.Y.).

feline cornea [3] = experiment: Corneal Hysteresis, Feline Study #2 (Reichert Ocular Response Analyzer); type: in vivo, cat; design: Corneal Hysteresis (CH): unit not given here
Procedure: A second study was conducted to examine the effects of acylation on “softening” or destabilizing corneal structural integrity using the Reichert Ocular Response Analyzer. Five subject animals were included in this study. One eye of each animal was treated with the contralateral eye serving as the control. For three animal subjects treatment eyes were evaluated for corneal hysteresis using the Reichert Ocular Response Analyzer before treatment and then after treatment with Proparacaine HCL, acetic anhydride diluted in sodium phosphate solution at a pH of 8.3-8.5, and decorin. For two animal subjects, no acylation agent was applied to the cornea. Instead, a 4 mm trephine was used to penetrate the corneal epithelium to provide a track for decorin penetration. Corneal hysteresis results are shown below in Table 2.

corneal epithelium = details: cited from earlier work
stromal collagen fibers = experiment: Transmission electron microscopy of decorin-treated cat cornea (first study); type: in vivo; details: cat eyes exposed to 50 μg decorin for 1, 3 or 5 days, no applicator; versus control cornea
Procedure: The following study was conducted at the Department of Surgical Research, Dartmouth-Hitchcock Medical Center, Lebanon, N.H. Five adult female cats were included in the study. All animals procured from Liberty Laboratories and were identified by ear tattoo. Ocular toxicity was determined by slit-lamp examination and measurement of endothelial cell structure. Decorin penetration into the corneal stroma was determined utilizing transmission electron microscopy. Cornea treated with decorin were reacted with Quinolinic Blue Stain (Cupromeronic blue) in buffered formalin. This reagent stains small proteoglycan structures such as decorin.
Cats were placed in three treatment groups. One eye from each group was treated with decorin. Three eyes were controls. Treated eyes were exposed to 50 μg of decorin for 1 day, 3 days or 5 days. Decorin solution was administered to the corneal using a sterile transfer pipet. An applicator was not used to localize the solution to the central corneal surface. All eyes were clinically evaluated immediately post-treatment and at days 2, 3, 5, and 8. One month after final treatment, eyes were reexamined and then enucleated. Each eye was sectioned. One half was placed in Formalin for subsequent histological analysis. The other half was again divided in half, one half prepared for Transmission Electron Microscopy. […]

[4] = Animal IBT4 treated eye, after the named step of the sequence Proparacaine, GA, AA #1, AA #2, decorin, Initial 4.0
[5] = Animal QKU8 treated eye, no decorin, after the named step of the sequence, Initial 7.0
[6] = Animal QKU8 treated eye, after the named step of the sequence, Initial 6.4
[7] = Animal QNO6 treated eye, no decorin, after the named step of the sequence, Initial 6.3
[8] = Animal AHH3, after the named step of Proparacaine HCL, acetic anhydride, decorin, Initial 8.75
[9] = Animal QJD4, after the named step of Proparacaine HCL, acetic anhydride, decorin, Initial 6.9
[10] = Animal RAF6, after the named step of Proparacaine HCL, acetic anhydride, decorin, Initial 5.88

| Molecule | Corneal Hysteresis (CH) (feline cornea [1]; [4]) | Corneal Hysteresis (CH) (feline cornea [1]; [5]) | Corneal Hysteresis (CH) (feline cornea [1]; [6]) | Corneal Hysteresis (CH) (feline cornea [1]; [7]) | disruption of epithelial cell junctures permitting diffusion of human recombinant decorin [2] | Corneal Hysteresis (CH) (feline cornea [3]; [8]) | Corneal Hysteresis (CH) (feline cornea [3]; [9]) | Corneal Hysteresis (CH) (feline cornea [3]; [10]) | further results |
| --- | --- | --- | --- | --- | --- | --- | --- | --- | --- |
| CCCOc1ccc(C(=O)OCCN(CC)CC)cc1N [Proparacaine, Proparacaine HCl, reference compound] | 7.0 | 7.5 | 8.0 | 7.0 | – | – | – | – | – |
| CC(=O)OC(C)=O [acetic anhydride] | 3.2 | 5.7 | 7.0 | 5.7 | successfully disrupted the epithelial cell junctures | 5.73 | 3.9 | 4.15 | Corneal Hysteresis (CH) (feline cornea [1]; Animal IBT4 treated eye, Post-AA #2 (second acetic anhydride treatment), Initial 4.0): 3.9; Corneal Hysteresis (CH) (feline cornea [1]; Animal QKU8 treated eye, Post-AA #2, Initial 6.4): 6.7; Corneal Hysteresis (CH) (feline cornea [1]; Animal QKU8 treated eye, Post-AA #2, Initial 7.0): 4.8; Corneal Hysteresis (CH) (feline cornea [1]; Animal QNO6 treated eye, Post-AA #2, Initial 6.3): 3.8 |
| C[C@@H]1CC[C@@]2(OC1)O[C@H]1[C@@H](O)[C@H]3[C@@H]4CC[C@H]5C[C@@H](O[C@@H]6O[C@H](CO)[C@H](O[C@@H]7O[C@H](CO)[C@@H](O)[C@H](O[C@@H]8OC[C@@H](O)[C@H](O)[C@H]8O)[C@H]7O[C@@H]7O[C@H](CO)[C@H](O)[C@H](O[C@@H]8O[C@H](CO)[C@@H](O)[C@H](O)[C@H]8O)[C@H]7O)[C@H](O)[C@H]6O)[C@H](O)C[C@]5(C)[C@H]4CC[C@]3(C)[C@H]1[C@@H]2C [digitonin] | – | – | – | – | – | – | – | – | effect of pretreating cornea on drug penetration (corneal epithelium; Shih and Lee): enhance penetration of timolol; effect of pretreating cornea on epithelium layers (corneal epithelium; Shih and Lee): exfoliate the top 2 layers of epithelium |
| O=C1CCCC(=O)O1 [glutaric anhydride] | 3.3 | 6.4 | 5.3 | 6.4 | successfully disrupted the epithelial cell junctures | – | – | – | – |
| cetylpyridium chloride | – | – | – | – | – | – | – | – | effect on corneal epithelium (corneal epithelium; 0.02%, Godbey): disrupted the top layers of epithelial cells |
| human recombinant decorin: Human recombinant Decorin prepared from CHO-S cells, MW approximately 40,000 daltons; stabilization molecule (small leucine-rich proteoglycan) (protein, UniProt P07585 31-359, looked up) Decorin: DEASGIGPEVPDDRDFEPSLGPVCPFRCQCHLRVVQCSDLGLDKVPKDLPPDTTLLDLQNNKITEIKDGDFKNLKNLHALILVNNKISKVSPGAFTPLVKLERLYLSKNQLKELPEKMPKTLQELRAHENEITKVRKVTFNGLNQMIVIELGTNPLKSSGIENGAFQGMKKLSYIRIADTNITSIPQGLPPSLTELHLDGNKISRVDAASLKGLNNLAKLGLSFNSISAVDNGSLANTPHLRELHLDNNKLTRVPGGLAEHKYIQVVYLHNNNISVVGSSDFCPPGHNTKKASYSGVSLFSNPVQYWEIQPSTFRCVYVRSAIQLGNYK | 4.6 | – | 7.9 | – | – | 7.3 | 6.3 | 5.18 | decorin penetration into cornea ([2]; control cornea, epithelial cell junctures not disrupted, applied directly to central cornea): limited to the epithelium; decorin penetration into cornea ([2]; cornea pretreated with acetic anhydride (3 μL) for 30 seconds): penetrated the corneal stroma; decorin penetration into cornea ([2]; cornea pretreated with glutaric anhydride 5 mg/mL for 30 seconds): penetrated the corneal stroma; change of corneal hysteresis (CH), in words (feline cornea [1]; Feline Study #1, sequential acylation then decorin): increased CH values to levels greater than initial values; Corneal Hysteresis (CH) (feline cornea [3]; Animal BEA4, no acylation agent, 4 mm trephine through epithelium, Initial 3.65): 4.8; Corneal Hysteresis (CH) (feline cornea [3]; Animal IRH6, no acylation agent, 4 mm trephine through epithelium, Initial 7.98): 8.03; change of CH values, in words (feline cornea [3]; Feline Study #2, acylation agent treated cornea): increased CH values; change of CH values, in words (feline cornea [3]; Feline Study #2, trephined but not acylation agent treated cornea): minimal increase in CH values; molecular bridges (links between fibers) between collagen fibers, TEM (stromal collagen fibers): increase in molecular bridges |
